The record followed here is ChEMBL document CHEMBL1949618, “Synthesis and properties of mRNA cap analogs containing imidodiphosphate moiety--fairly mimicking natural cap structure, yet resistant to enzymatic hydrolysis” (Bioorg Med Chem, 2012).

The target in series [1] is Eukaryotic translation initiation factor 4E (Oryctolagus cuniculus) (UniProt P29338). Put plainly: Inhibition of eIF4E-mediated mRNA translation in rabbit reticulocyte lysate assessed as translation efficiency after 60 mins by luciferase reporter gene assay relative to m7GpppG-capped mRNA.
Sequence of Eukaryotic translation initiation factor 4E (Oryctolagus cuniculus) (P29338 whole entry): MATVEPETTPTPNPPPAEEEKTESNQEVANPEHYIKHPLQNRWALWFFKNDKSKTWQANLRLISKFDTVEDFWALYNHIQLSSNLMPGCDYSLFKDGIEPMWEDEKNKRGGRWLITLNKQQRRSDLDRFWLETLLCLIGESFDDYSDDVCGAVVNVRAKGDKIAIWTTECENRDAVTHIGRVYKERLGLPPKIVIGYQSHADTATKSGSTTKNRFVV
Series [2] deals with Eukaryotic translation initiation factor 4E (Homo sapiens) (UniProt P06730). Nature of the series: Binding affinity to recombinant eIF4E by fluorescence quenching titration method.
Sequence of Eukaryotic translation initiation factor 4E (Homo sapiens) (P06730 whole entry): as the sequence (P29338 whole entry) above, with P16T, A17T, D174E counted along it
The species named for a further series is Homo sapiens. Nature of the series: Selectivity ratio of Ka for human recombinant DcpS to Ka for eIF4E.
Series [3] in a line: Chemical stability of the compound in aqueous buffer at pH 2 assessed as decomposition at 5 mM up to 2 hrs by RP-HPLC. Type of series: physicochemical. As to conditions: pH 2, 2 h, 5000 µM; call rule not given here.
Series [4] can be described thus: Chemical stability of the compound in aqueous buffer at pH 2 assessed as decomposition at 5 mM after 24 hrs by RP-HPLC. Type of series: physicochemical. Conditions: read-out: Drug degradation.
Series [5] can be described thus: Chemical stability of the compound in aqueous buffer at pH 6 assessed as decomposition at 5 mM up to 2 hrs by RP-HPLC. It is filed as physicochemical. As to conditions: pH 6, 2 h, 5000 µM.
The nature of series [6]: Chemical stability of the compound in aqueous buffer at pH 6 assessed as decomposition at 5 mM after 24 hrs by RP-HPLC. It is filed as physicochemical. Conditions: read-out: Drug degradation.
Series [7] in a line: Chemical stability of the compound in aqueous buffer at pH 8 assessed as decomposition at 5 mM up to 2 hrs by RP-HPLC. Type of series: physicochemical. Conditions: pH 8, 2 h, 5000 µM.
Series [8] can be described thus: Chemical stability of the compound in aqueous buffer at pH 8 assessed as decomposition at 5 mM after 24 hrs by RP-HPLC. It is filed as physicochemical. As to conditions: read-out: Drug degradation.
The nature of series [9]: Stability of the compound at -20 degreeC after 12 months. Type of series: physicochemical. As to conditions: 8766 h.
A short description of series [10]: Stability of the compound assessed as human recombinant DcpS -mediated hydrolysis after 2 hrs by HPLC. It is filed as ADME.
The target in series [11] is T1, Eukaryotic translation initiation factor 4E (Oryctolagus cuniculus, UniProt P29338). Put plainly: Inhibition of eIF4E-mediated mRNA translation in rabbit reticulocyte lysate by luciferase reporter gene assay. For orientation: Reporter assays use an easily measured gene product as a stand-in for the process of interest.
T1 sequence (P29338 whole entry): as the sequence (P29338 whole entry) above
In series [12] the target is T1, Eukaryotic translation initiation factor 4E. Nature of the series: Inhibition of eIF4E-mediated mRNA translation in rabbit reticulocyte lysate pre-incubated for 60 mins prior to mRNA addition by luciferase reporter gene assay.
Series [13] concerns the target T2, m7GpppX diphosphatase (Homo sapiens) (UniProt Q96C86).
T2 sequence (whole entry): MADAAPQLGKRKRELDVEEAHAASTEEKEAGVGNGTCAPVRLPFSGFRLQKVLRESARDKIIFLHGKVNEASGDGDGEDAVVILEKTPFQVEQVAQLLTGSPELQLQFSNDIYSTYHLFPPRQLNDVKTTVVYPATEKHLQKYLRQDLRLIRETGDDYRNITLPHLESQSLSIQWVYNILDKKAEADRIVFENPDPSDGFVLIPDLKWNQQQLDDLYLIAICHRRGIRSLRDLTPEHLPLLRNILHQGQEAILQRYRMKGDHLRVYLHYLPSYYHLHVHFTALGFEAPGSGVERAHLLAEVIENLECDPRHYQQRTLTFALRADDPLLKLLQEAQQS
Description: Binding affinity to human recombinant DcpS by fluorescence quenching titration method

Some results are limits rather than exact numbers.

Regarding `CO[C@@H]1[C@H](O)[C@@H](COP(=O)(O)CP(=O)(O)OP(=O)([O-])OP(=O)(O)OC[C@H]2O[C@@H](n3cnc4c(=O)[nH]c(N)nc43)[C@H](O)[C@@H]2O)O[C@H]1n1c[n+](C)c2c(O)nc(N)nc21`, in [1], the fold change (FC) amounted to 1.5.
Take `C[n+]1cn([C@@H]2O[C@H](COP(=O)(O)OP(=O)([O-])OP(=O)(O)OC[C@H]3O[C@@H](n4cnc5c(=O)[nH]c(N)nc54)[C@H](O)[C@@H]3O)[C@@H](O)[C@H]2O)c2nc(N)nc(O)c21`: the Ka in [2] worked out at 12.5 µM⁻¹. In addition, in the series filed under Homo sapiens, the Ratio is over 1. In series [1], the fold change (FC) amounted to 1.
As usually defined, the IC50 is the point on the concentration scale where inhibition reaches its midpoint. On to `C[n+]1cn([C@@H]2O[C@H](COP(=O)([O-])NP(=O)(O)OP(=O)(O)OC[C@H]3O[C@@H](n4cnc5c(=O)[nH]c(N)nc54)[C@H](O)[C@@H]3O)[C@@H](O)[C@H]2O)c2nc(N)[nH]c(=O)c21.N.N`, for which the Drug degradation entry in series [3], in series [5], in [7] and in series [10] was “Not Active” throughout. The degraded at 24 h, 5000 µM in [4], in series [6] and in [8] was under 10% throughout. The Stability entry in [9] is given as “Stable”. In addition, the Ka worked out at 14.6 µM⁻¹ in series [2] and 218 µM⁻¹ in series [13]. Besides, in the series filed under Homo sapiens, the Ratio is 15. The figures for the IC50 in series [11] and in series [12] were 3.97 µM and 3.74 µM, respectively.
Turning to `CO[C@@H]1[C@H](O)[C@@H](COP(=O)(O)OP(=O)([O-])OP(=O)(O)OC[C@H]2O[C@@H](n3cnc4c(=O)[nH]c(N)nc43)[C@H](O)[C@@H]2O)O[C@H]1n1c[n+](C)c2c(O)nc(N)nc21`, the Ka in series [2] stood at 10.8 µM⁻¹.
Regarding `CO[C@@H]1[C@H](O)[C@@H](COP(=O)([O-])OP(=O)(O)CP(=O)(O)OC[C@H]2O[C@@H](n3cnc4c(=O)[nH]c(N)nc43)[C@H](O)[C@@H]2O)O[C@H]1n1c[n+](C)c2c(O)nc(N)nc21`, the fold change (FC) in [1] turned out to be 1.25.
Take `CO[C@H]1[C@@H](O)[C@H](n2c[n+](C)c3c(O)nc(N)nc32)O[C@@H]1COP(=O)(O)OP(=O)([O-])OP(=O)(O)OC[C@H]1O[C@@H](n2cnc3c(=O)[nH]c(N)nc32)[C@H](O)[C@@H]1O`: the fold change (FC) in series [1] is 1.47.
On to `C[n+]1cn([C@@H]2O[C@H](COP(=O)([O-])OP(=O)(O)OP(=O)(O)NP(=O)(O)OC[C@H]3O[C@@H](n4cnc5c(=O)[nH]c(N)nc54)[C@H](O)[C@@H]3O)[C@@H](O)[C@H]2O)c2nc(N)[nH]c(=O)c21.N.N.N`, for which the Drug degradation result in [3] is reported as “Not Active”; in series [5], “Not Active”; in series [7], “Not Active”; in series [10], “Active”. Besides, the degraded at 24 h, 5000 µM in [4], in series [6] and in series [8] was under 10% throughout. Moreover, the Stability entry in [9] is “Stable”. Moreover, the Ka in series [2] came out at 141 µM⁻¹. Besides, the IC50 in series [11] is 3.52 µM; in [12], 16 µM.
With `C[n+]1cn([C@@H]2O[C@H](COP(=O)([O-])NP(=O)([O-])OP(=O)([O-])OP(=O)([O-])OC[C@H]3O[C@@H](n4cnc5c(=O)[nH]c(N)nc54)[C@H](O)[C@@H]3O)[C@@H](O)[C@H]2O)c2nc(N)[nH]c(=O)c21.[Na+].[Na+].[Na+]`, the Drug degradation result in series [3], in series [5], in series [7] and in [10] was “Not Active” in each case. In addition, the degraded at 24 h, 5000 µM in series [4], in [6] and in series [8] was under 10% throughout. Further, the Stability entry in [9] is given as “Stable”. The Ka was 112 µM⁻¹ in [2] and 155 µM⁻¹ in series [13]. Besides, the Ratio in the series filed under Homo sapiens was 1.4. Further, the IC50 in series [11] came out at 2.62 µM; in series [12] it was 3.58 µM.
Take `C[n+]1cn([C@@H]2O[C@H](COP(=O)(S)OP(=O)(O)OP(=O)([O-])OC[C@H]3O[C@@H](n4cnc5c(=O)[nH]c(N)nc54)[C@H](O)[C@@H]3O)[C@@H](O)[C@H]2O)c2nc(N)[nH]c(=O)c21` (stereo not given in full): the Ka in [13] stood at 146 µM⁻¹.
With `C[n+]1cn([C@@H]2O[C@H](COP(=O)(O)OP(=O)(O)OP(=O)([O-])OP(=O)(O)OC[C@H]3O[C@@H](n4cnc5c(=O)[nH]c(N)nc54)[C@H](O)[C@@H]3O)[C@@H](O)[C@H]2O)c2nc(N)nc(O)c21`, the Ka in series [2] was determined as 111 µM⁻¹.
As to `C[n+]1cn([C@@H]2O[C@H](COP(=O)(O)CP(=O)(O)OP(=O)([O-])OP(=O)(O)OC[C@H]3O[C@@H](n4cnc5c(=O)[nH]c(N)nc54)[C@H](O)[C@@H]3O)[C@@H](O)[C@H]2O)c2nc(N)nc(O)c21`, in [2], the Ka was found to be 51.8 µM⁻¹. In the series listed under Homo sapiens, the Ratio worked out at 3.1.
Consider `Nc1nc2c(ncn2[C@@H]2O[C@H](COP(=O)(O)OP(=O)(O)OP(=O)(O)OC[C@H]3O[C@@H](n4cnc5c(N)ncnc54)[C@H](O)[C@@H]3O)[C@@H](O)[C@H]2O)c(=O)[nH]1`, for which the fold change (FC) in [1] was 0.18.
As to `CO[C@@H]1[C@H](O)[C@@H](COP(=O)(O)OP(=O)([O-])OP(=O)(O)CP(=O)(O)OC[C@H]2O[C@@H](n3cnc4c(=O)[nH]c(N)nc43)[C@H](O)[C@@H]2O)O[C@H]1n1c[n+](C)c2c(O)nc(N)nc21`, in [1], the fold change (FC) stood at 1.56.
Take `CO[C@@H]1[C@H](O)[C@@H](COP(=O)(O)OP(=O)([O-])OP(=O)(O)OP(=O)(O)OC[C@H]2O[C@@H](n3cnc4c(=O)[nH]c(N)nc43)[C@H](O)[C@@H]2O)O[C@H]1n1c[n+](C)c2c(O)nc(N)nc21`: in series [2], the Ka was found to be 99.8 µM⁻¹. Besides, in series [10], the Drug degradation entry is on record as “Active”. The fold change (FC) in series [1] is 1.56.
`C[n+]1cn([C@@H]2O[C@H](COP(=O)(O)OP(=O)([O-])OP(=O)(O)OC[C@H]3O[C@@H](n4cnc5c(=O)[nH]c(N)nc54)[C@H](O)[C@@H]3O)[C@@H](O)[C@H]2O)c2nc(N)[nH]c(=O)c21`: the IC50 in series [12] is over 20 µM.
For the compound `C[n+]1cn([C@@H]2O[C@H](COP(=O)(O)OP(=O)(O)OP(=O)(O)OP(=O)(O)OC[C@H]3O[C@@H](n4cnc5c(=O)[nH]c(N)nc54)[C@H](O)[C@@H]3O)[C@@H](O)[C@H]2O)c2nc(N)[n-]c(=O)c21`, the Drug degradation entry in series [10] is reported as “Active”. The results for the IC50 in series [11] and in [12] were 5 µM and over 20 µM, respectively.
For `C[n+]1cn([C@@H]2O[C@H](COP(=O)(O)CP(=O)(O)OP(=O)([O-])OC[C@H]3O[C@@H](n4cnc5c(=O)[nH]c(N)nc54)[C@H](O)[C@@H]3O)[C@@H](O)[C@H]2O)c2nc(N)nc(O)c21`, in series [2], the Ka was determined as 6.3 µM⁻¹. For the same compound, the Ratio in the series listed under Homo sapiens was 37.1.
For the compound `CO[C@@H]1[C@H](O)[C@@H](COP(=O)(O)CP(=O)(O)OP(=O)([O-])OC[C@H]2O[C@@H](n3cnc4c(=O)[nH]c(N)nc43)[C@H](O)[C@@H]2O)O[C@H]1n1c[n+](C)c2c(O)nc(N)nc21`, the fold change (FC) in [1] amounted to 1.1.
